Assay results: ChEMBL document CHEMBL3120114, “Synthesis and evaluation of new coumarin derivatives as potential atypical antipsychotics” (Eur J Med Chem, 2014)

Columns and labels:
D(2) dopamine receptor = D(2) dopamine receptor (Rattus norvegicus, UniProt P61169); experiment: Displacement of [3H]spiperone from dopamine D2 receptor in Sprague-Dawley rat striatum homogenate after 30 mins by liquid scintillation counting
[1] = molecular target: 5-hydroxytryptamine receptor 2A (Rattus norvegicus, UniProt P14842); experiment: Displacement of [3H]Ketanserin from 5HT2A receptor in Sprague-Dawley rat brain cortex homogenate after 30 mins by liquid scintillation counting; assay type: tissue-based
Sequence of 5-hydroxytryptamine receptor 2A (P14842 whole entry): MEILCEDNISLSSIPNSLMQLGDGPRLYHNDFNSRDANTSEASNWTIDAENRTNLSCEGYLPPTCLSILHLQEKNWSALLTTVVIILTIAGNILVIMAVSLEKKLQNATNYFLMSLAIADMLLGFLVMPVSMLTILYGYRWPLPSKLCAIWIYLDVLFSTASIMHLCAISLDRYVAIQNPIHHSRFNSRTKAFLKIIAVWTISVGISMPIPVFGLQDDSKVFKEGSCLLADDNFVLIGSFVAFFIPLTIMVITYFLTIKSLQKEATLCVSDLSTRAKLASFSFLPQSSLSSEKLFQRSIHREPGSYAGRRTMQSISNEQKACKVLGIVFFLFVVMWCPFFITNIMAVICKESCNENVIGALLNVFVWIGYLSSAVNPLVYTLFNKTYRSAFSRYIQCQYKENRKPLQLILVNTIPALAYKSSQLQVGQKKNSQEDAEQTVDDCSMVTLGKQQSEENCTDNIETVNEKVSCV

[2] = molecular target: T1, 5-hydroxytryptamine receptor 1A (Rattus norvegicus, UniProt P19327); experiment: Displacement of [3H]8-OH-DPAT from 5HT1A receptor in Sprague-Dawley rat brain cortex homogenate after 30 mins by liquid scintillation counting; assay type: tissue-based
T1 sequence (P19327 whole entry): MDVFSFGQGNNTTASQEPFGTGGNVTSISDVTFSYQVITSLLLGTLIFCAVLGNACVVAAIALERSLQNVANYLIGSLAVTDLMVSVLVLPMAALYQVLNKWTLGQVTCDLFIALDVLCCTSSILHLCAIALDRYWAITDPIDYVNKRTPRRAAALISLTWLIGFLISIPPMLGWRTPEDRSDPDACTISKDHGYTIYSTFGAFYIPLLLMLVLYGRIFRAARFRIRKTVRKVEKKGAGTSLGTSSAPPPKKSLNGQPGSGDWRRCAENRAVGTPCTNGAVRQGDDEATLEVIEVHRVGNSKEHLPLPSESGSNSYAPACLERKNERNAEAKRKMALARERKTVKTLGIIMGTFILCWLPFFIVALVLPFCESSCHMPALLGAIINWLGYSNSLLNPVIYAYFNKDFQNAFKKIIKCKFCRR

Mus musculus [3] = experiment: Toxicity in po dosed Kunming mouse assessed as induction of catalepsy; assay type: organism-based; details: in vivo
Mus musculus [4] = experiment: Antipsychotic activity in po dosed Kunming mouse assessed as reduction in MK801-induced hyperactivity compound administered 30 mins prior to MK801 challenge measured for 90 mins post challenge; assay type: functional
Mus musculus [5] = experiment: Antipsychotic activity in po dosed Kunming mouse assessed as reversal of apomorphine-induced cage climbing response compound administered 30 mins prior to apomorphine challenge measured for 30 mins post challenge; assay type: functional
[6] = Acute toxicity in po dosed Kunming mouse assessed as survival measured after 24 hrs; assay type: organism-based; details: in vivo
Histamine H1 receptor = Histamine H1 receptor (Cavia porcellus, UniProt P31389); experiment: Displacement of [3H]mepyramine from histamine H1 receptor in guinea pig cerebellum homogenate after 60 mins by liquid scintillation counting; assay type: tissue-based
Sequence of Histamine H1 receptor (P31389 whole entry): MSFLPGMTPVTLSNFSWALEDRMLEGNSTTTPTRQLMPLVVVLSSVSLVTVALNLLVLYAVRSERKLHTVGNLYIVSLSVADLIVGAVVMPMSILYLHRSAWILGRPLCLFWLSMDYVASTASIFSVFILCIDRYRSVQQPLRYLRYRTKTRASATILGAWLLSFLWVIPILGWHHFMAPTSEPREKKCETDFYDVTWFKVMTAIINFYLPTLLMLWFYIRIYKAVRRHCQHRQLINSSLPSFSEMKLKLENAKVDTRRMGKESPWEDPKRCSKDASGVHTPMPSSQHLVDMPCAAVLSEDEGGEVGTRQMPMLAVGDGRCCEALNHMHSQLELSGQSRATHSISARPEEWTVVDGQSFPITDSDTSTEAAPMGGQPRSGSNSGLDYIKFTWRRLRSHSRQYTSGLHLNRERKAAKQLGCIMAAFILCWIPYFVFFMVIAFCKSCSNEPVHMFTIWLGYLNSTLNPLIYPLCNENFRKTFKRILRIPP

D(3) dopamine receptor = D(3) dopamine receptor (Rattus norvegicus, UniProt P19020); experiment: Displacement of [3H]7-OH-DPA from dopamine D3 receptor in Sprague-Dawley rat olfactory tubercle homogenate after 60 mins by liquid scintillation counting; assay type: tissue-based
Sequence of D(3) dopamine receptor (P19020 whole entry): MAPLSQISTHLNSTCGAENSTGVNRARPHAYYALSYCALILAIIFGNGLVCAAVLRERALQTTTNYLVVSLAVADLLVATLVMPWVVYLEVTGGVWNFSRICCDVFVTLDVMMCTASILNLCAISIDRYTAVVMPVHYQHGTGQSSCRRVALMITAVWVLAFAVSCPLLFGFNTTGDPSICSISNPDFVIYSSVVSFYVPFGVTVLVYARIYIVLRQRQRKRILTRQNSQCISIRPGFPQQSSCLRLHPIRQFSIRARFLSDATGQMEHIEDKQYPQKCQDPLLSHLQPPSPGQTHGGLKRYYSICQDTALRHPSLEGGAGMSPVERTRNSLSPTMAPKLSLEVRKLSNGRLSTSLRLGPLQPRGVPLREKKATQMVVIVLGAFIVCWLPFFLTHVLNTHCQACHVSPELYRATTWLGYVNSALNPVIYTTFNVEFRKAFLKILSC

in vivo [7] = details: Kunming, mouse, po
Description: Therapeutic index, ratio of ED50 for induction of catalepsy to ED50 for antipsychotic activity in po dosed Kunming mouse assessed as reduction in MK801-induced hyperactivity

in vivo [8] = details: Kunming, mouse, po; remark: listed apart in the source
Description: Therapeutic index, ratio of ED50 for induction of catalepsy to ED50 for antipsychotic activity in po dosed Kunming mouse assessed as reversal of apomorphine-induced cage climbing response

Sequence of D(2) dopamine receptor (P61169 whole entry): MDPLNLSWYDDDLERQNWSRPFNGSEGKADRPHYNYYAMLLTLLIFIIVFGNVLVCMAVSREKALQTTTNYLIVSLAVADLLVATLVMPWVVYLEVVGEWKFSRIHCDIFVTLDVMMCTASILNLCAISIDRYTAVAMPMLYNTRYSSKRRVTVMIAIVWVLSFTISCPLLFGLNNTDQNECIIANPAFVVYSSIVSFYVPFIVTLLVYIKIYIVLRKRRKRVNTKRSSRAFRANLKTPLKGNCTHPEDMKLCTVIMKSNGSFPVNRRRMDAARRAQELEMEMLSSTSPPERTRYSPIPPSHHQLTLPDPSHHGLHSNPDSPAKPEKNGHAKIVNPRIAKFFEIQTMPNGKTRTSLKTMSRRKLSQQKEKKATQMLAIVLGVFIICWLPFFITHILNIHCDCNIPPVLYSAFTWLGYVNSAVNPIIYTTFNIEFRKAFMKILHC

Structure (SMILES): O=c1oc2cc(OCCCCN3CCN(c4ccccn4)CC3)ccc2c2c1CCC2
- Ki (D(2) dopamine receptor): > 10000 nM
- Ki [1]: 1400 nM
- Ki [2]: 1260 nM

Structure (SMILES): Cc1c(OCCCCN2CCC(c3noc4cc(F)ccc34)CC2)ccc2c3c(c(=O)oc12)CCC3
- ED50 (Mus musculus [3]): 66.47 mg/kg
- Activity (Mus musculus [4]): Dose-dependent effect
- ED50 (Mus musculus [4]): 0.31 mg/kg
- Activity (Mus musculus [5]): Dose-dependent effect
- ED50 (Mus musculus [5]): 0.61 mg/kg
- LD50 at 24 h [6]: > 2000 mg/kg
- Ki (Histamine H1 receptor): 1830 nM
- Ki (D(3) dopamine receptor): 13.6 nM
- Ki (D(2) dopamine receptor): 12.7 nM
- Ki [1]: 2.2 nM
- Ki [2]: 7.8 nM
- selectivity ratio (in vivo [7]): 214
- selectivity ratio (in vivo [8]): 109

Structure (SMILES): O=C(CCCN1CCC(O)(c2ccc(Cl)cc2)CC1)c1ccc(F)cc1 [HALOPERIDOL]
- ED50 (Mus musculus [3]): 0.38 mg/kg
- ED50 (Mus musculus [4]): 0.16 mg/kg
- ED50 (Mus musculus [5]): 0.14 mg/kg
- selectivity ratio (in vivo [7]): 2.38
- selectivity ratio (in vivo [8]): 2.71

Structure (SMILES): COc1ccccc1N1CCN(CCCCOc2ccc3c4c(c(=O)oc3c2)CCCC4)CC1
- Ki (D(2) dopamine receptor): 757 nM
- Ki [1]: 1030 nM
- Ki [2]: 1120 nM

Structure (SMILES): O=c1oc2cc(OCCCN3CCC(c4noc5cc(F)ccc45)CC3)ccc2c2c1CCC2
- Ki (D(2) dopamine receptor): > 10000 nM
- Ki [1]: 188 nM
- Ki [2]: > 10000 nM

Structure (SMILES): Cc1nc2n(c(=O)c1CCN1CCC(c3noc4cc(F)ccc34)CC1)CCCC2 [RISPERIDONE]
- ED50 (Mus musculus [3]): 0.43 mg/kg
- ED50 (Mus musculus [4]): 0.017 mg/kg
- ED50 (Mus musculus [5]): 0.02 mg/kg

Structure (SMILES): COc1ccccc1N1CCN(CCCOc2ccc3c4c(c(=O)oc3c2)CCC4)CC1
- Ki (D(2) dopamine receptor): > 10000 nM
- Ki [1]: 618 nM
- Ki [2]: 640 nM

Structure (SMILES): O=c1oc2cc(OCCCCN3CCC(c4noc5cc(F)ccc45)CC3)ccc2c2ccccc12
- Ki (D(2) dopamine receptor): > 10000 nM
- Ki [1]: > 10000 nM
- Ki [2]: > 10000 nM

Structure (SMILES): O=c1oc2cc(OCCCCCN3CCC(c4noc5cc(F)ccc45)CC3)ccc2c2c1CCC2
- Ki (D(2) dopamine receptor): 698 nM
- Ki [1]: 426 nM
- Ki [2]: 1050 nM

Structure (SMILES): O=c1oc2cc(OCCCCN3CCN(c4nsc5ccccc45)CC3)ccc2c2c1CCC2
- Ki [1]: 653 nM
- Ki [2]: 969 nM

Structure (SMILES): COc1ccccc1N1CCN(CCCCOc2ccc3c4c(c(=O)oc3c2C)CCC4)CC1
- Ki (D(2) dopamine receptor): 570 nM
- Ki [1]: 175 nM
- Ki [2]: 349 nM

Structure (SMILES): O=c1oc2cc(OCCCCN3CCC(c4nc5ccccc5o4)CC3)ccc2c2c1CCC2
- Ki (D(2) dopamine receptor): 1890 nM
- Ki [1]: 16.2 nM
- Ki [2]: 26.8 nM

Structure (SMILES): O=c1oc2cc(OCCCCN3CCN(c4cccc(Cl)c4Cl)CC3)ccc2c2c1CCC2
- Ki (D(2) dopamine receptor): 1900 nM
- Ki [1]: 79.3 nM
- Ki [2]: 68 nM

Structure (SMILES): O=c1oc2cc(OCCCCN3CCC(c4noc5cc(F)ccc45)CC3)ccc2c2c1CCCC2
- Ki (D(2) dopamine receptor): 624 nM
- Ki [1]: 126 nM
- Ki [2]: > 10000 nM

Structure (SMILES): Cc1cccc(N2CCN(CCCCOc3ccc4c5c(c(=O)oc4c3)CCC5)CC2)c1C
- Ki (D(2) dopamine receptor): 1600 nM
- Ki [1]: 11.7 nM
- Ki [2]: 22.1 nM

Structure (SMILES): COc1cccc(N2CCN(CCCCOc3ccc4c5c(c(=O)oc4c3)CCC5)CC2)c1
- Ki (D(2) dopamine receptor): 1060 nM
- Ki [1]: 895 nM
- Ki [2]: 22.4 nM

Structure (SMILES): O=c1oc2cc(OCCCN3CCC(c4noc5cc(F)ccc45)CC3)ccc2c2ccccc12
- Ki (D(2) dopamine receptor): > 10000 nM
- Ki [1]: > 10000 nM
- Ki [2]: > 10000 nM

Structure (SMILES): O=c1oc2cc(OCCCCN3CCN(c4ccccc4)CC3)ccc2c2c1CCC2
- Ki (D(2) dopamine receptor): > 10000 nM
- Ki [1]: 59.2 nM
- Ki [2]: 56 nM

Structure (SMILES): O=c1oc2cc(OCCCCN3CCN(c4cccc(C(F)(F)F)c4)CC3)ccc2c2c1CCC2
- Ki (D(2) dopamine receptor): > 10000 nM
- Ki [1]: 174 nM
- Ki [2]: 19.3 nM

Structure (SMILES): CN1CCN(C2=Nc3cc(Cl)ccc3Nc3ccccc32)CC1 [CLOZAPINE]
- ED50 (Mus musculus [3]): 46.14 mg/kg
- ED50 (Mus musculus [4]): 2.25 mg/kg
- ED50 (Mus musculus [5]): 3.97 mg/kg

Structure (SMILES): COc1ccccc1N1CCN(CCCCOc2ccc3c4c(c(=O)oc3c2)CCC4)CC1
- Ki (Histamine H1 receptor): 699 nM
- Ki (D(3) dopamine receptor): 178 nM
- Ki (D(2) dopamine receptor): 5.6 nM
- Ki [1]: 3.9 nM
- Ki [2]: 0.2 nM

Structure (SMILES): O=c1oc2cc(OCCCCN3CCC(c4nc5ccccc5s4)CC3)ccc2c2c1CCC2
- Ki (D(2) dopamine receptor): > 10000 nM
- Ki [1]: 1870 nM
- Ki [2]: 1600 nM

Structure (SMILES): COc1ccccc1N1CCN(CCCCOc2ccc3c4c(c(=O)oc3c2Cl)CCC4)CC1
- Ki (D(2) dopamine receptor): 159 nM
- Ki [1]: 105 nM
- Ki [2]: 157 nM

Structure (SMILES): O=c1oc2cc(OCCCCN3CCN(c4ccc(F)cc4)CC3)ccc2c2c1CCC2
- Ki (D(2) dopamine receptor): > 10000 nM
- Ki [1]: 16.5 nM
- Ki [2]: 28.9 nM

Structure (SMILES): COc1ccccc1N1CCN(CCCCOc2cc3oc(=O)c4c(c3cc2Cl)CCC4)CC1
- Ki (D(2) dopamine receptor): > 10000 nM
- Ki [1]: 36.6 nM
- Ki [2]: 84.8 nM

Structure (SMILES): COc1ccc(N2CCN(CCCCOc3ccc4c5c(c(=O)oc4c3)CCC5)CC2)cc1
- Ki (D(2) dopamine receptor): > 10000 nM
- Ki [1]: > 10000 nM
- Ki [2]: 1240 nM

Structure (SMILES): O=c1oc2c(Cl)c(OCCCCN3CCC(c4noc5cc(F)ccc45)CC3)ccc2c2c1CCC2
- Ki (Histamine H1 receptor): 13.6 nM
- Ki (D(3) dopamine receptor): 13.9 nM
- Ki (D(2) dopamine receptor): 18.9 nM
- Ki [1]: 5.3 nM
- Ki [2]: 11.4 nM

Structure (SMILES): O=c1oc2cc(OCCCCN3CCC(c4noc5cc(F)ccc45)CC3)ccc2c2c1CCC2
- Ki (Histamine H1 receptor): 21.3 nM
- Ki (D(3) dopamine receptor): 110 nM
- Ki (D(2) dopamine receptor): 24.4 nM
- Ki [1]: 13.1 nM
- Ki [2]: 47.5 nM

Structure (SMILES): O=c1oc2cc(OCCCCN3CCC(c4noc5cc(F)ccc45)CC3)c(Cl)cc2c2c1CCC2
- Ki (D(2) dopamine receptor): 146 nM
- Ki [1]: 249 nM
- Ki [2]: 140 nM
